According to patent US20050220906A1, “Pharmaceutical composition for treating rheumatism and the preparation thereof” (priority 2002, published 2005):

What was measured:
[1] = system: CD4, CD8 cells; experiment: CD4 and CD8 cells of the spleen; assay type: in vivo, ICR mice; details: 0.02 g/kg
Protocol: (§1) The experiment was same to 5.1. 24 hours after the last administration, the spleen cell samples were made into the 2×10^8/ml cell suspension with 5% FCS-RPIM1640. The quantity of CD4, CD8, NK cells and the rate CD4/CD8 were measured on the usural method.
The spleen cell suspension 50 μl was added on the glass to made the cell smear. The glass had been coated by the polylysine. The T cell of the mouse was set as the positive control sample. The cell smear was enveloped by the serum of the normal mouse after it was fixed by the acetone. Then the enveloped sample was added with the antibody of CD4 and CD8 which were marked by the hominine biotin. It was incubated at 37° C. for 2 hours. Then the sample was added with the avidin labeled by enzyme and put still for 10 min. After added with the substrate for 10 min, the mixed sample was washed and dyed with the hematoxylin for 2 min. Then the sample was dyhidrated with the grade-alcohol and enveloped with gelatin-glycetrol. 200 cells in the smear were chosen as the research target under the high power microscope. [formula]

[2] = system: hemolysin antibody; experiment: Hemolysin antibody caused by chick RBC, NIH mouse; assay type: in vivo; details: 0.02 g/kg, 0˜7
Protocol: (§2) 190 mice, 18-22 g weight, half male and half female, were divided into 19 groups. Each mouse was immunized with 5% CRBC solution 0.2 ml. The Fengshiping solutions were drenched at the different times. 7 days after the immunization, all the mice were sampled the blood from the eyes. Then the blood samples were diluted and measured the level of the hemolysin antibody.

[3] = system: NK cell; experiment: NK cell activity (Yack-1 target cells); assay type: in vivo, ICR mice; details: 0.02 g/kg
Protocol: as §1
The preparation of the EC cell: The spleen cells were sampled in the asepsis condition. Then the samples were washed by the Hank's liquor for 2 times and nonserum RPMI1640 liquor for 1 time. Then the clear samples were adjusted to the 2×10^8/ml cell suspension with 5% FCS-RPMI liquor. This cell suspension was used as the EC.
The preparation of the TC cell: The Yack-1 cells, which were sensitive to the mouse NK cell and on the logarithmic growth phase, were adjusted to the 4×10^4/ml cell suspension. It was the TC.
Measurement: EC and TC, 100 μl each were added in the 96-hole flat bottom cell culturing batten. Each sample was cultured with 3 copies and set 2 control samples: EC and TC. […] The samples were cultured in 5% CO2 at 37° C. for 24 hours. 6 hours before the end of the culturing, the samples were centrifuged and sucked out 110 μl supernate each hole. And then the holes were added in the MTT 10 μl. After put at 37° C. for 3 hours, the mixed samples were measured the OD value at the wavelength of 570 nm and 630 nm. The OD of each hole=OD570 nm-OD630 nm.

[4] = system: IL-2; experiment: IL-2 level of cultured cells from dosed mice (CTLL cells); assay type: in vivo, ICR mice; details: 0.02 g/kg, 10 days
Protocol: (§3) 60 ICR mice, 1822 g, half male and half female, were divided into 6 groups at random. Each group was drenched of the correspondent medicines including the different dosages of Fengshiping and the other medicines. The medicines were administrated once a day for 10 days. 24 hours after the last administration, the mice were sampled the macrophage and spleen cells from the abdominal cavity in the aseptic condition. The samples were washed with Hank's liquor for 2 times and non-serum RPIM 1640 liquor for 1 time. Then the washed samples were diluted to the suspension with the 5% FCS-RPMI 1640 at the concentration of 2×10^8/ml. Then the suspensions were added with 10 ng/ml LPS or the 10 ng/ml ConA and cultured in the 5% CO2 condition for 48 hours at 37° C. Then the cultured suspension were measured the TNF α and IL-2 levels on the usual methods.
The CTLL cells which was on the logarithmic growth phase and whose growth depends on the IL-2, were adjusted to the suspension at the concentration of 1×10^5/ml with the 5% FCS-RPMI 1640. Then the 96 hole cell culturing batten were added with the CTLL cell suspension on the quantity of 100 μl/hole. The supernates were added on the quantity of 100 μl/hole and each sample was added to 3 holes. […] The samples were cultured for 3 hours at 37° C., and then measured the OD at the wavelength 570 nm and 630 nm. […]

[5] = system: hemolysin antibody; experiment: Hemolysin antibody caused by chick RBC, ICR mouse; assay type: in vivo; details: 0˜7
Protocol: as §2

[6] = system: TNF α; experiment: TNF α level of cultured cells from dosed mice; assay type: in vivo, ICR mice; details: 0.02 g/kg, 10 days
Protocol: as §3
The batten was coated by mouse TNF-α monoclonal antibody. The batten was added with the cultured supernate on the dose of 50 μl/hole. Then the batten was put still for 60 minutes at the room temperature. Then the batten was added with biotin antibody mark at 25° C. for 2 hours. Then the enzyme labeled avidin was added into the batten for 30 minutes. […] The mixed liquor was measured the OD value at the wavelength of the 450 nm. The content of the TNF-α (ng/ml) was calculated on the data of OD value by the method of standard curve.

[7] = system: DTH caused by DNFB; experiment: Delayed hypersensitivity (DTH) caused by DNFB in the mouse ear; assay type: in vivo, NIH mouse
Protocol: Each mouse was led to hypersensitivity reaction by using the 1% DNFB acetone solution on the dosage of 0.025 ml at the right place of the abdomen where the pilus had been cut yet. Using the same solution on the same place was to enhance the hypersensitivity reaction on the third day. On the fifth day, all the mice were smeared with the 1% DNFB edible oil solution at the mice's right ears on the dosage of 0.01 ml each. 24 hours later, all the mice were killed. The mouse's 2 ears were weighted by the torsion balance and the difference of the 2 ears was recorded as the DTH degree caused by the DNFB. The experiment was carried out on the different immune and administration processes.
The immune and administration processes is as following: [drawing 1]

[8] = 0.05 g/kg, administration day −2˜0
[9] = 0.05 g/kg, administration day −2˜2
[10] = 0.1 × 3 g/kg, 0, 2, 4 day once a day

## O=P1(N(CCCl)CCCl)NCCCO1 (centres unmarked) [cyclophosphane]
[1]
  CD4: 11.50 ± 2.50 %
  CD4/CD8: 2.91 ± 0.53
  CD8: 4.10 ± 1.20 %
[2]
  Hemolysin value: 35.0 ± 12.0
  Inhibiting percent: 79.3%
[3]
  NK: 23.10 ± 3.66 ^
[4]
  IL-2: 10.10 ± 3.00 IU/ml
[5]; Table 3.2, 0.02 g/kg
  Hemolysin value: 27.80 ± 6.60
  Inhibiting percent: 77.9%
[5]; Table 3.3, 0.02 g/kg
  Hemolysin value: 25.0 ± 4.0
  Inhibiting percent: 90.2%
[6]
  TNF: 42.20 ± 9.57 pg/mL
[7]; [8]
  Percent of ear swelling: 37.47 ± 6.71
  Percent of inhibition: 11.7%
[7]; [9]
  Percent of ear swelling: 39.40 ± 10.78
  Percent of inhibition: 8.1%
[7]; [10]
  Percent of ear swelling: 23.00 ± 7.65
  Percent of inhibition: 40.3%
[7]; 0.25 g/kg, −3 d
  Percent of ear swelling: 41.84 ± 7.75
  Percent of inhibition: −8.7%
